Reference: patent US20260355182A1, “ISOQUINOLINE DERIVATIVE, SYNTHESIS METHOD THEREFOR, AND USE THEREOF” (Harbin Gloria Pharmaceuticals Co., Ltd., priority 2023, published 2026)

Key:
[1] = tested on: glucose metabolism; conditions: human, in vivo; cited from earlier work
[2] = biological target: T1, Pgk1 (Homo sapiens, UniProt P00558); assay: Affinity for Pgk1 protein (Biacore T200); type: binding; conditions: drug alone; amount of small-molecule drug bound
T1 sequence (P00558 1-417): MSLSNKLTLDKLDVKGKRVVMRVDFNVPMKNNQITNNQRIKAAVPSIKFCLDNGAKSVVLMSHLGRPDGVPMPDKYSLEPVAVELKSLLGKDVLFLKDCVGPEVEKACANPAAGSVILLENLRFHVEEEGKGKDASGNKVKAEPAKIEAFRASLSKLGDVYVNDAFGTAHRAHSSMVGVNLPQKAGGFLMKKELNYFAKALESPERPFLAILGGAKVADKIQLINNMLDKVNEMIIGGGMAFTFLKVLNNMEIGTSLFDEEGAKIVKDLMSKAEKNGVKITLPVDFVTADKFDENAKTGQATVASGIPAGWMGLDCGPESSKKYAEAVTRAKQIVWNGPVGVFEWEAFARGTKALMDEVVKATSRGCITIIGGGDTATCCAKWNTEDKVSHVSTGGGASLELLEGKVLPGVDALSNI
Procedure: Example 30: Determination of Affinities of Compounds for Pgk1 Protein
Purified Pgk1 protein (with a concentration of 1 mg/mL) was immobilized on a Biacore T200 chip. […] The obtained curves can calculate parameters such as affinity and Rmax.

[3] = tested on: rats; conditions: combined administration of terazosin and propranolol; cited from earlier work
[4] = tested on: patients; conditions: cited from earlier work
[5] = tested on: phosphoglycerate kinase 1 (Pgk1); conditions: previous studies; cited from earlier work
[6] = tested on: al adrenergic receptor; conditions: cited from earlier work
[7] = tested on: Parkinson's disease and related diseases; conditions: long-term use; cited from earlier work
[8] = tested on: db/db mice; assay: Hypoglycemic effect in diabetic model db/db mice, intraperitoneal; type: in vivo; conditions: 0.6 mg/Kg i.p., 4 hours
Procedure: Gene knockout db/db mice are a classic model of hyperglycemia and obesity. Under normal feeding conditions, mice aged 3 months or older developed hyperglycemia and obesity. After the mice were provided with only drinking water (fasted) for 6 hours, blood was collected from the tail of the mice to measure blood glucose values. Subsequently, different drugs, including saline (control), liraglutide at 0.6 mg/Kg, low-concentration T6 (T6 low, 0.1 mg/Kg), and high-concentration T6 (T6 high, 0.5 mg/Kg), were injected intraperitoneally. 4 hours later, blood was collected from the tail of the mice to measure the blood glucose levels. Each group consisted of 6 mice. Blood glucose levels before administration (Vbefore) and after administration (Vafter) were obtained for each mouse. The effect of the drug on blood glucose (%) was calculated as follows:
(Vbefore−Vafter)×100/Vbefore.

[9] = tested on: db/db mice; assay: Acute glucose-response assay in non-fasted db/db mice; type: in vivo; conditions: s.c., 2 h; TZ 0.5, liraglutide 0.6, T6 0.5 mg/Kg
Procedure: The db/db mice were used to evaluate the glucose-lowering activity of compound T6 in comparison with reference metabolic agents (TZ 0.5 mg/Kg, liraglutide 0.6 mg/Kg, T6 0.5 mg/Kg). In FIG. 15, A) for the acute glucose-response assay, drugs were administered to non-fasted db/db mice. Immediately after drug administration (s. c.), mice were deprived of food and water, and blood glucose levels were measured from tail blood samples 2 h later. The relative percentage change in blood glucose was calculated by comparing glucose levels before and after treatment in the same animal. […] HbA1c levels were then measured using a glycated hemoglobin A1c enzyme-linked immunosorbent assay, also referred to as a mouse HbA1c ELISA assay. […] Data are presented as mean±error bars, with individual circles representing individual animals. Statistical significance is indicated as P<0.001 (**) and P<0.0001 (***).

[10] = tested on: diabetic patients; conditions: cited from earlier work
[11] = tested on: SK-N-SH cells; assay: Effects of compounds on cellular ATP levels (Promega ATP assay); type: cell-based, human; conditions: 1 μM, 48 hours, 5% O2; untreated = 1
Procedure: Effects of compounds on cellular ATP levels.
Human Neuroblastoma Cell Line (SK-N-SH) is a human-derived neuroblastoma cell line. SK-N-SH cells were seeded in a 6-well plate at a density of 6×10^4 cells per well. The cells were cultured for 12 hours under 5% O2. Various drugs at a concentration of 1 μM were added. After 48 hours, the cells were harvested. Cellular ATP levels were measured using the Promega ATP assay kit. The experiment was repeated 6 times to 10 times. The experimental results were illustrated in FIG. 1. […] T1 to T11 were the experimental groups.

[12] = tested on: MPTP-induced Parkinson's disease model mice; assay: MPTP-induced mouse model of Parkinson's disease, rotarod and tyrosine hydroxylase Western blot; type: in vivo
Procedure: Male mice aged 3 months were used and fed normally. The acute MPTP modeling method (see Sonsalla P K, Heikkila R E. The influence of dose and dosing interval on MPTP-induced dopaminergic neurotoxicity in mice. Eur J Pharmacol 1986; 129(3): 339-45.) was employed. MPTP was injected intraperitoneally four times in total at a dose of 20 mg/kg body weight per injection, with a 2-hour interval between each injection. MPTP was dissolved in normal saline, and the control group received an equal dose of normal saline. T2 was dissolved in DMSO and diluted with normal saline to the desired concentration. Accordingly, equal doses of DMSO and normal saline were administered during the treatment. On the day of MPTP model establishment, mice were administered either T2 (treatment group) or DMSO (control group). Subsequently, mice in all groups were administered the corresponding drugs daily. Mouse behavior was tested using a rotarod (E103, UGO BASILE). First, mice were pre-trained for two consecutive days at a constant speed of 15 revolutions per minute (15 rpm) until they could stay on the rod for more than 60 seconds. On day 7 after MPTP injection, mice were tested on the rotarod in an accelerating mode (2 rpm to 45 rpm). The latency to fall from the rotarod was recorded, and the behavior was monitored by a camera. After the experiment, the mice were sacrificed, and the striatal brain tissue was harvested for Western blot assay. Tyrosine hydroxylase (TH) is a protein specifically expressed in dopaminergic neurons. Therefore, whether dopaminergic neurons were damaged can be determined by Western blot assay using an anti-TH antibody.

Compound: Oc1ccc(C=Cc2cc(O)cc(O)c2)cc1 [resveratrol, reference compound]
- Clinical efficacy on glucose metabolism [1]: either no effect or clinical efficacy in only a small subset of the population

Compound: Nc1ncnc2c1ncn2[C@@H]1O[C@H](COP(=O)(O)OP(=O)(O)O)[C@@H](O)[C@H]1O [ADP, reference compound]
- Rmax [2]: 35 RU

Compound: CC(C)NCC(O)COc1cccc2ccccc12 (stereo not drawn) [propranolol]
- Blood glucose in rats [3]: did not affect blood glucose in rats

Compound: Nc1nc(N2CCN(C(=O)[C@H]3CCCO3)CC2)cc2cc3c(cc12)CCO3 [Compound T5]
- Rmax [2]: 86 RU

Compound: COc1cc2nc(N(C)CCCNC(=O)C3CCCO3)nc(N)c2cc1OC (stereo not drawn) [alfuzosin]
- Side effects [4]: intraoperative floppy iris syndrome (IFIS), hypotension, fatigue, dizziness, syncope, and blurred vision

Compound: CN(C)C(=N)N=C(N)N [metformin, reference compound]
- Clinical efficacy on glucose metabolism [1]: either no effect or clinical efficacy in only a small subset of the population

Compound: Nc1nc(N2CCN(C(=O)C3CCCC3)CC2)cc2cc3c(cc12)OCO3 [Compound T7]
- Rmax [2]: 159 RU

Compound: COc1cc2cc(N3CCN(C(=O)C4CCCO4)CC3)nc(N)c2cc1OC (stereo not drawn) [TZ-md]
- Binding to / activation of Pgk1 [5]: still retains the effect of activating Pgk1
- Inhibition of the al adrenergic receptor [6]: does not inhibit the al adrenergic receptor
- Reduction of affinity for the al adrenergic receptor ([6]; substitution of quinazoline nitrogen by carbon, vs terazosin): more than 1000 fold

Compound: CCOc1ccccc1OCCN[C@H](C)Cc1ccc(OC)c(S(N)(=O)=O)c1 [tamsulosin]
- Effect on incidence of Parkinson's disease and related diseases [7]: do not exhibit similar effects
- Side effects [4]: intraoperative floppy iris syndrome (IFIS), hypotension, fatigue, dizziness, syncope, and blurred vision

Compound: CO[C@H]1C[C@@H]2CC[C@@H](C)[C@@](O)(O2)C(=O)C(=O)N2CCCC[C@H]2C(=O)O[C@H]([C@H](C)C[C@@H]2CC[C@@H](O)[C@H](OC)C2)CC(=O)[C@H](C)/C=C(\C)[C@@H](O)[C@@H](OC)C(=O)[C@H](C)C[C@H](C)/C=C/C=C/C=C/1C [rapamycin, reference compound]
- Clinical efficacy on glucose metabolism [1]: either no effect or clinical efficacy in only a small subset of the population

Compound: CCCCCCCCCCCCCCCC(=O)N[C@@H](CCC(=O)NCCCC[C@H](NC(=O)[C@H](C)NC(=O)[C@H](C)NC(=O)[C@H](CCC(N)=O)NC(=O)CNC(=O)[C@H](CCC(=O)O)NC(=O)[C@H](CC(C)C)NC(=O)[C@H](Cc1ccc(O)cc1)NC(=O)[C@H](CO)NC(=O)[C@H](CO)NC(=O)[C@@H](NC(=O)[C@H](CC(=O)O)NC(=O)[C@H](CO)NC(=O)[C@@H](NC(=O)[C@H](Cc1ccccc1)NC(=O)[C@@H](NC(=O)CNC(=O)[C@H](CCC(=O)O)NC(=O)[C@H](C)NC(=O)[C@@H](N)Cc1cnc[nH]1)[C@@H](C)O)[C@@H](C)O)C(C)C)C(=O)N[C@@H](CCC(=O)O)C(=O)N[C@@H](Cc1ccccc1)C(=O)N[C@H](C(=O)N[C@@H](C)C(=O)N[C@@H](Cc1c[nH]c2ccccc12)C(=O)N[C@@H](CC(C)C)C(=O)N[C@H](C(=O)N[C@@H](CCCNC(=N)N)C(=O)NCC(=O)N[C@@H](CCCNC(=N)N)C(=O)NCC(=O)O)C(C)C)[C@@H](C)CC)C(=O)O [liraglutide, reference compound]
- Hypoglycemic effect (liraglutide) [8]: optimal hypoglycemic effect
- Acute change in blood glucose [9]: marked reduction in blood glucose

Compound: insulin
- Clinical efficacy on glucose metabolism [1]: either no effect or clinical efficacy in only a small subset of the population

Compound: CN(CC(=O)O)C(=N)N [creatine]
- Clinical efficacy on glucose metabolism [1]: either no effect or clinical efficacy in only a small subset of the population

Compound: COC1=C(OC)C(=O)C(C/C=C(\C)CC/C=C(\C)CC/C=C(\C)CC/C=C(\C)CC/C=C(\C)CC/C=C(\C)CC/C=C(\C)CC/C=C(\C)CC/C=C(\C)CCC=C(C)C)=C(C)C1=O [coenzyme Q10]
- Clinical efficacy on glucose metabolism [1]: either no effect or clinical efficacy in only a small subset of the population

Compound: Nc1nc(N2CCN(C(=O)[C@H]3CCCN3)CC2)cc2cc3c(cc12)OCO3 [Compound T8]
- Rmax [2]: 87 RU

Compound: Nc1nc(N2CCN(C(=O)[C@H]3CCCO3)CC2)cc2cc3c(cc12)OCO3 [Compound T1]
- Rmax [2]: 116 RU

Compound: CC1Oc2cc3cc(N4CCN(C(=O)[C@H]5CCCO5)CC4)nc(N)c3cc2O1 (stereo partly drawn) [Compound T3]
- Rmax [2]: 93 RU

Compound: CC1(C)Oc2cc3cc(N4CCN(C(=O)[C@H]5CCCO5)CC4)nc(N)c3cc2O1 [Compound T4]
- Rmax [2]: 75 RU

Compound: COc1cc2nc(N3CCN(C(=O)C4COc5ccccc5O4)CC3)nc(N)c2cc1OC (stereo not drawn) [doxazosin]
- Blood glucose and lipid levels [10]: efficacy is extremely limited or ineffective
- Side effects [4]: intraoperative floppy iris syndrome (IFIS), hypotension, fatigue, dizziness, syncope, and blurred vision

Compound: Nc1nc(N2CCN(C(=O)c3ccco3)CC2)cc2cc3c(cc12)OCO3 [Compound T11]
- Activity in increasing cellular ATP [11]: no such activity of increasing cellular ATP
- Rmax [2]: None

Compound: Nc1nc(N2CCN(C(=O)[C@@H]3CCCN3)CC2)cc2cc3c(cc12)OCO3 [Compound T9]
- Rmax [2]: 87 RU

Compound: O=C(O)c1cccnc1 [vitamin B3]
- Clinical efficacy on glucose metabolism [1]: either no effect or clinical efficacy in only a small subset of the population

Compound: Nc1nc(N2CCN(C(=O)[C@@H]3CCCO3)CC2)cc2cc3c(cc12)OCO3 [Compound T2]
- Rmax [2]: 122 RU
- Tyrosine hydroxylase level / dopaminergic neurons ([12]; T2 0.1 mg/Kg, striatum, Western blot): exerted a protective effect on dopaminergic neurons
- Motor ability (rotarod) ([12]; T2 0.1, 0.3 and 1 mg/Kg, day 7 after MPTP): exerted protective effects

Compound: Nc1nc(N2CCN(C(=O)[C@H]3CCCO3)CC2)cc2cc3c(cc12)OCCO3 [Compound T10]
- Activity in increasing cellular ATP [11]: no such activity of increasing cellular ATP
- Rmax [2]: None
